Experimental data published in ChEMBL document CHEMBL2440076, “New triarylpyrazoles as broad-spectrum anticancer agents: design, synthesis, and biological evaluation” (Eur J Med Chem, 2013).

How the values were obtained:
Format in all cases: functional
[1] = system: MCF7; test: Growth inhibition of human MCF7 cells assessed as cell growth at 3X10'-8 M after 48 hrs by sulforhodamine B assay; details: MCF7, 48 h, read-out: Activity
[2] = system: NCI-H322M; test: Growth inhibition of human NCI-H322M cells assessed as cell growth at 3X10'-9 M after 48 hrs by sulforhodamine B assay; details: read-out: Activity
[3] = Growth inhibition of human Hs 578T cells assessed as cell growth at 3X10'-8 M after 48 hrs by sulforhodamine B assay; details: read-out: Activity
[4] = system: SK-MEL-2; test: Growth inhibition of human SK-MEL-2 cells assessed as cell growth at 3X10'-9 M after 48 hrs by sulforhodamine B assay; details: SK-MEL-2, 48 h, read-out: Activity
[5] = system: A498; test: Growth inhibition of human A498 cells assessed as cell growth at 3X10'-9 M after 48 hrs by sulforhodamine B assay; details: A498, 48 h, read-out: Activity
[6] = system: BT-549; test: Growth inhibition of human BT549 cells assessed as cell growth at 3X10'-7 M after 48 hrs by sulforhodamine B assay; details: BT-549, 48 h, read-out: Activity
[7] = system: OVCAR-4; test: Growth inhibition of human OVCAR4 cells assessed as cell growth at 3X10'-7 M after 48 hrs by sulforhodamine B assay; details: OVCAR-4, 48 h, read-out: Activity
[8] = system: T47D; test: Growth inhibition of human T47D cells assessed as cell growth at 3X10'-5 M after 48 hrs by sulforhodamine B assay; details: read-out: Activity
[9] = system: CCRF-CEM; test: Growth inhibition of human CCRF-CEM cells assessed as cell growth at 3X10'-6 M after 48 hrs by sulforhodamine B assay; details: read-out: Activity
[10] = system: RXF 393; test: Growth inhibition of human RXF393 cells assessed as cell growth at 3X10'-8 M after 48 hrs by sulforhodamine B assay; details: RXF 393, 48 h, read-out: Activity
[11] = system: ACHN; test: Growth inhibition of human ACHN cells assessed as cell growth at 3X10'-9 M after 48 hrs by sulforhodamine B assay; details: read-out: Activity
[12] = system: TK-10; test: Growth inhibition of human TK10 cells assessed as cell growth at 3X10'-7 M after 48 hrs by sulforhodamine B assay; details: TK-10, 48 h, read-out: Activity
[13] = system: IGROV-1; test: Growth inhibition of human IGROV1 cells assessed as cell growth at 3X10'-8 M after 48 hrs by sulforhodamine B assay; details: IGROV-1, 48 h, read-out: Activity
[14] = system: OVCAR-3; test: Growth inhibition of human OVCAR3 cells assessed as cell growth at 3X10'-8 M after 48 hrs by sulforhodamine B assay; details: OVCAR-3, 48 h, read-out: Activity
[15] = system: U-251; test: Growth inhibition of human U251 cells assessed as cell growth at 3X10'-8 M after 48 hrs by sulforhodamine B assay; details: U-251, 48 h, read-out: Activity
[16] = system: A549; test: Growth inhibition of human A549/ATCC cells assessed as cell growth at 3X10'-8 M after 48 hrs by sulforhodamine B assay; details: A549, 48 h, read-out: Activity
[17] = system: MOLT-4; test: Growth inhibition of human MOLT4 cells assessed as cell growth at 3X10'-5 M after 48 hrs by sulforhodamine B assay; details: MOLT-4, 48 h, read-out: Activity
[18] = system: MOLT-4; test: Growth inhibition of human MOLT4 cells assessed as cell growth at 3X10'-8 M after 48 hrs by sulforhodamine B assay; details: MOLT-4, 48 h, read-out: Activity
[19] = system: PC-3; test: Growth inhibition of human PC3 cells assessed as cell growth at 3X10'-6 M after 48 hrs by sulforhodamine B assay; details: PC-3, 48 h, read-out: Activity
[20] = system: SF-268; test: Growth inhibition of human SF268 cells assessed as cell growth at 3X10'-9 M after 48 hrs by sulforhodamine B assay; details: SF-268, 48 h, read-out: Activity
[21] = system: SN12C; test: Growth inhibition of human SN12C cells assessed as cell growth at 3X10'-9 M after 48 hrs by sulforhodamine B assay; details: read-out: Activity
[22] = system: A549; test: Growth inhibition of human A549/ATCC cells assessed as cell growth at 3X10'-5 M after 48 hrs by sulforhodamine B assay; details: A549, 48 h, read-out: Activity
[23] = system: MDA-MB-231; test: Growth inhibition of human MDA-MB-231 cells assessed as cell growth at 3X10'-8 M after 48 hrs by sulforhodamine B assay; details: MDA-MB-231, 48 h, read-out: Activity
[24] = system: CCRF-CEM; test: Growth inhibition of human CCRF-CEM cells assessed as cell growth at 3X10'-5 M after 48 hrs by sulforhodamine B assay; details: read-out: Activity
[25] = system: MDA-MB-468; test: Growth inhibition of human MDA-MB-468 cells assessed as cell growth at 3X10'-7 M after 48 hrs by sulforhodamine B assay; details: MDA-MB-468, 48 h, read-out: Activity
[26] = system: UO-31; test: Growth inhibition of human UO31 cells assessed as cell growth at 3X10'-5 M after 48 hrs by sulforhodamine B assay; details: UO-31, 48 h, read-out: Activity
[27] = system: MOLT-4; test: Growth inhibition of human MOLT4 cells assessed as cell growth at 3X10'-6 M after 48 hrs by sulforhodamine B assay; details: MOLT-4, 48 h, read-out: Activity
[28] = system: MDA-MB-231; test: Growth inhibition of human MDA-MB-231 cells assessed as cell growth at 3X10'-9 M after 48 hrs by sulforhodamine B assay; details: MDA-MB-231, 48 h, read-out: Activity
[29] = system: SN12C; test: Growth inhibition of human SN12C cells assessed as cell growth at 3X10'-6 M after 48 hrs by sulforhodamine B assay; details: read-out: Activity
[30] = system: SF-539; test: Growth inhibition of human SF539 cells assessed as cell growth at 3X10'-6 M after 48 hrs by sulforhodamine B assay; details: SF-539, 48 h, read-out: Activity
[31] = system: RPMI-8226; test: Growth inhibition of human RPMI8226 cells assessed as cell growth at 3X10'-9 M after 48 hrs by sulforhodamine B assay; details: RPMI-8226, 48 h, read-out: Activity
[32] = system: CAKI-1; test: Growth inhibition of human CAKI-1 cells assessed as cell growth at 3X10'-9 M after 48 hrs by sulforhodamine B assay; details: CAKI-1, 48 h, read-out: Activity
[33] = system: MDA-MB-231; test: Growth inhibition of human MDA-MB-231 cells assessed as cell growth at 3X10'-7 M after 48 hrs by sulforhodamine B assay; details: MDA-MB-231, 48 h, read-out: Activity
[34] = system: SK-OV-3; test: Growth inhibition of human SKOV3 cells assessed as cell growth at 3X10'-5 M after 48 hrs by sulforhodamine B assay; details: SK-OV-3, 48 h, read-out: Activity
[35] = system: SW-620; test: Growth inhibition of human SW620 cells assessed as cell growth at 3X10'-6 M after 48 hrs by sulforhodamine B assay; details: SW-620, 48 h, read-out: Activity
[36] = system: NCI-H460; test: Growth inhibition of human NCI-H460 cells assessed as cell growth at 3X10'-7 M after 48 hrs by sulforhodamine B assay; details: NCI-H460, 48 h, read-out: Activity

SMILES: O=C(Nc1cccc(-n2cc(-c3ccncc3)c(-c3ccc(Cl)c(O)c3)n2)c1)Nc1cccc(C(F)(F)F)c1
- growth at 0.03 µM [1]: 96%
- growth at 0.003 µM [2]: 95%
- growth at 0.03 µM [3]: 91%
- growth at 0.003 µM [4]: 93%
- growth at 0.003 µM [5]: 92%
- growth at 0.3 µM [6]: 102%
- growth at 0.3 µM [7]: 108%
- growth at 30 µM [8]: 7%
- growth at 3 µM [9]: 25%
- growth at 0.03 µM [10]: 97%
- growth at 0.003 µM [11]: 103%
- growth at 0.3 µM [12]: 107%
- growth at 0.03 µM [13]: 98%
- growth at 0.03 µM [14]: 93%
- growth at 0.03 µM [15]: 100%
- growth at 0.03 µM [16]: 100%
- growth at 30 µM [17]: 8%
- growth at 0.03 µM [18]: 96%
- growth at 3 µM [19]: 13%
- growth at 0.003 µM [20]: 95%
- growth at 0.003 µM [21]: 98%
- growth at 30 µM [22]: 11%
- growth at 0.03 µM [23]: 101%
- growth at 30 µM [24]: 7%
- growth at 0.3 µM [25]: 81%
- growth at 30 µM [26]: 11%
- growth at 3 µM [27]: 36%
- growth at 0.003 µM [28]: 103%
- growth at 3 µM [29]: 37%
- growth at 3 µM [30]: 54%
- growth at 0.003 µM [31]: 99%
- growth at 0.003 µM [32]: 98%
- growth at 0.3 µM [33]: 95%
- growth at 30 µM [34]: 15%
- growth at 3 µM [35]: 53%
- growth at 0.3 µM [36]: 94%
